The values below come from patent US20110186299A1, “Low-Toxicity Biodegradable Corrosion Inhibitors” (priority 2008, published 2011).

For data set [1], the system named is freshwater algae (Pseudokirchneriella subcapitata). Nature of the data set: Algal toxicity, growth inhibition of freshwater algae over 72 hours (OECD Guideline 201). The format is cell-based. The conditions noted are these: inhibition of 50% of algal growth. On the procedure:
The toxicity of the substances for the environment can be measured with regard to various standardized tests. One of the more sensitive consists of the measurement of the toxicity with regard to freshwater algae (Pseudokirchneriella subcapitata). The test is carried out according to the OECD Guideline 201. It consists in evaluating the inhibition of the growth of the algae over a period of time of 72 hours. The characteristic parameter is the EC50, which is the concentration of the substance which brings about inhibition of 50% of the algal growth during the test.

Data set [2] in a line: Biodegradability in seawater (OECD Guideline 306). As to conditions: marine environment. The protocol: The biodegradability tests are carried out in a marine environment according to the OECD Guideline 306.

As for `CCCCCCCCC=CCCCCCCCC1=NCCN1CCN` [Imidazoline A, N-aminoethyl-2-heptadecenylimidazoline], the “Algal toxicity (EC50 in mg/l)” value in data set [1] came to 0.0047 mg/L. Moreover, the “OECD 306 Biodegradability, % of biodegradation in 28 days” value in data set [2] came out at 57%.

Take “N-aminoethyl-2-heptadecenylimidazoline maleate [Example 2]”: in data set [1], the “Algal toxicity (EC50 in mg/l)” value was found to be 1 mg/L. Besides, in data set [2], the “OECD 306 Biodegradability, % of biodegradation in 28 days” value was 66%.
